Source: patent US9487511B2, “Cyclopropanamine compound and use thereof” (Takeda Pharmaceutical Company Limited, priority 2014, dated 2016)
Where a name gives a salt, the structure may show the parent alone. Read-outs that look alike come from different tables or passages of the source.

Columns and labels:
[1] = Evaluation of hippocampal distribution in mouse; format: in vivo; settings: male ICR mice, 10 mg/kg oral; for concentration at 1 h / concentration at 0.5 h: male, ICR, mouse, po, 10 mg/kg; for concentration at 0.5 h: 0.5 h after administration
[2] = Evaluation of blood cell number in mouse; format: in vivo; settings: male ICR mice, oral, repeated 7 or 9 days
Experimental: All compounds were repeatedly administered to the mice at a dose of 1 mg/kg, 10 mg/kg or 100 mg/kg (body weight) for 7 or 9 days. One day after the final administration of the compound, the whole blood was collected.
Using Sysmex XT-1800i (Sysmex Corporation), the white blood cell number, red blood cell number, and platelet number in the collected whole blood per unit volume were measured. The influence of each compound on each blood cell number was determined by calculating the number with the mean of each blood cell number of the mouse without administration of the compound (0 mg/kg group), and the mean of each blood cell number in the whole blood of a mouse with the administration of the compound.

[3] = hippocampus, 1 h after administration, read-out: Concentration Hippocampus, Mean
[4] = plasma, 1 h after administration, read-out: Concentration Plasma, Mean
[5] = 1 h after administration, sulfate

Compound | concentration at 1 h [1, 3] [ng/g] | concentration at 1 h [1, 4] [ng/mL] | Platelets, Mean ([2]; 1 mg/kg) | Red blood cells, Mean ([2]; 1 mg/kg) | White blood cells, Mean ([2]; 1 mg/kg) | Platelets, Mean ([2]; 10 mg/kg) | Red blood cells, Mean ([2]; 10 mg/kg) | White blood cells, Mean ([2]; 10 mg/kg) | Platelets, Mean ([2]; 100 mg/kg) | Red blood cells, Mean ([2]; 100 mg/kg) | White blood cells, Mean ([2]; 100 mg/kg) | further results
Cc1nnc(NC(=O)c2cc([C@@H]3C[C@H]3NCC3CC3)cs2)s1 [Example 82, 4-((1S,2R)-2-((cyclopropylmethyl)amino)cyclopropyl)-N-(5-methyl-1,3,4-thiadiazol-2-yl)thiophene-2-carboxamide dihydrochloride] | 170 | 1330 | 1399 10^3 cells | 899 10^4 cells | 403 10 cells | 1445 10^3 cells | 926 10^4 cells | 424 10 cells | 1411 10^3 cells | 903 10^4 cells | 329 10 cells | –
Cc1nnc(NC(=O)c2cc([C@@H]3C[C@H]3NC3CCC3)c(C)s2)s1 [Example 99, 4-((1S,2R)-2-(cyclobutylamino)cyclopropyl)-5-methyl-N-(5-methyl-1,3,4-thiadiazol-2-yl)thiophene-2-carboxamide hydrochloride] | 640 | 2950 | 1442 10^3 cells | 892 10^4 cells | 399 10 cells | 1380 10^3 cells | 915 10^4 cells | 378 10 cells | 1519 10^3 cells | 876 10^4 cells | 347 10 cells | –
Cc1nnc(NC(=O)c2cc([C@@H]3C[C@H]3NCC3CCOCC3)c(C)s2)s1 [Example 97, 5-methyl-N-(5-methyl-1,3,4-thiadiazol-2-yl)-4-((1S,2R)-2-((tetrahydro-2H-pyran-4-ylmethyl)amino)cyclopropyl)thiophene-2-carboxamide hydrochloride] | 194 | 978 | 1462 10^3 cells | 902 10^4 cells | 377 10 cells | 1483 10^3 cells | 890 10^4 cells | 366 10 cells | 1533 10^3 cells | 929 10^4 cells | 332 10 cells | –
Cc1nnc(NC(=O)c2cc([C@@H]3C[C@H]3NC3CCC3)cs2)s1 [Example 118, 4-((1S,2R)-2-(cyclobutylamino)cyclopropyl)-N-(5-methyl-1,3,4-thiadiazol-2-yl)thiophene-2-carboxamide sulfate] | – | – | – | – | – | – | – | – | – | – | – | Concentration Hippocampus, Mean [1, 5]: 0.151 µg/g; Concentration Plasma, Mean [1, 5]: 405 ng/mL; Platelets, Mean ([2]; 1 mg/kg, sulfate): 1051 10^3 cells; Red blood cells, Mean ([2]; 1 mg/kg, sulfate): 853 10^4 cells; White blood cells, Mean ([2]; 1 mg/kg, sulfate): 299 10 cells; Platelets, Mean ([2]; 10 mg/kg, sulfate): 1158 10^3 cells; Red blood cells, Mean ([2]; 10 mg/kg, sulfate): 907 10^4 cells; White blood cells, Mean ([2]; 10 mg/kg, sulfate): 312 10 cells; Platelets, Mean ([2]; 100 mg/kg, sulfate): 1176 10^3 cells; Red blood cells, Mean ([2]; 100 mg/kg, sulfate): 881 10^4 cells; White blood cells, Mean ([2]; 100 mg/kg, sulfate): 245 10 cells
O=C(NC1CCOCC1)c1csc([C@@H]2C[C@H]2NCC2CC2)c1 [Example 71, 5-((1R,2R)-2-((cyclopropylmethyl)amino)cyclopropyl)-N-(tetrahydro-2H-pyran-4-yl)thiophene-3-carboxamide hydrochloride] | 82 | 229 | 1178 10^3 cells | 873 10^4 cells | 275 10 cells | 1197 10^3 cells | 817 10^4 cells | 276 10 cells | 1322 10^3 cells | 853 10^4 cells | 323 10 cells | –
Cc1sc(C(=O)Nc2cnn(C)c2)cc1[C@@H]1C[C@H]1NC1CCC1 [Example 123, 4-((1S,2R)-2-(cyclobutylamino)cyclopropyl)-5-methyl-N-(1-methyl-1H-pyrazol-4-yl)thiophene-2-carboxamide hydrochloride] | – | – | – | – | – | – | – | – | 1333 10^3 cells | 866 10^4 cells | 380 10 cells | concentration at 0.5 h ([1]; hippocampus, read-out: Concentration Hippocampus, Mean): 369 ng/g; concentration at 0.5 h ([1]; plasma, read-out: Concentration Plasma, Mean): 1110 ng/mL; Platelets, Mean ([2]; 1 mg/kg, hydrochloride): 1086 10^3 cells; Red blood cells, Mean ([2]; 1 mg/kg, hydrochloride): 846 10^4 cells; White blood cells, Mean ([2]; 1 mg/kg, hydrochloride): 390 10 cells; Platelets, Mean ([2]; 10 mg/kg, hydrochloride): 1234 10^3 cells; Red blood cells, Mean ([2]; 10 mg/kg, hydrochloride): 854 10^4 cells; White blood cells, Mean ([2]; 10 mg/kg, hydrochloride): 368 10 cells
